Source: PubChem BioAssay AID248 (DTP/NCI, 2004)
Where “and” joins values, the source holds several entries; their conditions need not be identical. Equal values may be shown once. Toxic doses and inconclusive results are not listed. No stated cut-off is given here; in the data, active means T/C of 150% or more; inactive means T/C below 125%.

Test system: L1210 leukemia ip in BDF1 mice, survival T/C
Assay: NCI In Vivo Anticancer Drug Screen. Data for tumor model L1210 Leukemia (intraperitoneal) in B6D2F1 (BDF1) mice
Details: endpoint: mean survival time, higher = longer survival
Method in brief: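 Value reflects the ratio of survival in compound-treated mice to survival in vehicle-treated controls, with both groups carrying the same transplanted tumor.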

[1] = dose: 100.0 mg/kg/injection, schedule: Q01DX009 (ip), vehicle: saline with Tween-80
[2] = dose: 200.0 mg/kg/injection, schedule: Q01DX009 (ip), vehicle: saline with Tween-80
[3] = dose: 400.0 mg/kg/injection, schedule: Q01DX009 (ip), vehicle: saline with Tween-80
[4] = dose: 100.0 mg/kg/injection, schedule: Q04DX003 (ip), vehicle: Klucel (hydroxypropylcellulose) (HPC)
[5] = dose: 200.0 mg/kg/injection, schedule: Q04DX003 (ip), vehicle: Klucel (hydroxypropylcellulose) (HPC)
[6] = dose: 100.0 mg/kg/injection, schedule: Q04DX002 (ip), vehicle: saline with Tween-80
[7] = dose: 200.0 mg/kg/injection, schedule: Q04DX002 (ip), vehicle: saline with Tween-80
[8] = dose: 400.0 mg/kg/injection, schedule: Q04DX002 (ip), vehicle: saline with Tween-80
[9] = dose: 400.0 mg/kg/injection, schedule: Q04DX003 (ip), vehicle: Klucel (hydroxypropylcellulose) (HPC)

Measured: T/C

CCOC(=O)CNC(=O)Oc1cc(C)cc(C)c1C
inactive: [1] 98 % of control | [2] 100 % of control | [3] 98 % of control

N#Cc1sc2ccccc2c1CBr
inactive: dose: 6.25 mg/kg/injection, schedule: Q01DX009 (ip), vehicle: Klucel (hydroxypropylcellulose) (HPC) 93 % of control | dose: 12.5 mg/kg/injection, schedule: Q01DX009 (ip), vehicle: Klucel (hydroxypropylcellulose) (HPC) 94 % of control | dose: 25.0 mg/kg/injection, schedule: Q01DX009 (ip), vehicle: Klucel (hydroxypropylcellulose) (HPC) 100 % of control | [4] 100 % of control | [5] 94 % of control

O=S(=O)(/N=C1C=C(N2CCOCC2)/C(=N/S(=O)(=O)c2ccccc2)C=C/1N1CCOCC1)c1ccccc1
inactive: dose: 75.0 mg/kg/injection, schedule: Q04DX003 (ip), vehicle: Klucel (hydroxypropylcellulose) (HPC) 97 % of control | dose: 150.0 mg/kg/injection, schedule: Q04DX003 (ip), vehicle: Klucel (hydroxypropylcellulose) (HPC) 89 % of control | dose: 300.0 mg/kg/injection, schedule: Q04DX003 (ip), vehicle: Klucel (hydroxypropylcellulose) (HPC) 100 % of control

O=C1c2ccccc2C(=O)c2c(O)c(N3CCOCC3)cc(O)c21
inactive: dose: 0.25 mg/kg/injection, schedule: Q04DX003 (ip), vehicle: water 90 % of control | dose: 0.5 mg/kg/injection, schedule: Q04DX003 (ip), vehicle: water 102 % of control | dose: 1.0 mg/kg/injection, schedule: Q04DX003 (ip), vehicle: water 110 % of control | dose: 2.0 mg/kg/injection, schedule: Q04DX003 (ip), vehicle: water 100 % of control | dose: 4.0 mg/kg/injection, schedule: Q04DX003 (ip), vehicle: water 102 % of control | dose: 8.0 mg/kg/injection, schedule: Q04DX003 (ip), vehicle: water 100 % of control | dose: 16.0 mg/kg/injection, schedule: Q04DX003 (ip), vehicle: saline 102 % of control | dose: 16.0 mg/kg/injection, schedule: Q04DX003 (ip), vehicle: water 100 % of control | dose: 32.0 mg/kg/injection, schedule: Q04DX003 (ip), vehicle: saline 110 % of control | dose: 64.0 mg/kg/injection, schedule: Q04DX003 (ip), vehicle: saline 102 % of control

O=C(OOC(=O)c1ccccc1)c1ccccc1
inactive: dose: 50.0 mg/kg/injection, schedule: Q01DX001 (ip), vehicle: other 96 % of control | dose: 100.0 mg/kg/injection, schedule: Q01DX001 (ip), vehicle: other 94 % of control | dose: 200.0 mg/kg/injection, schedule: Q01DX001 (ip), vehicle: other 102 % of control | dose: 400.0 mg/kg/injection, schedule: Q01DX001 (ip), vehicle: other 102 % of control

CCOC(=O)c1cc(/C=C/C=O)oc1N
inactive: [6] 106 % of control | [7] 101 % of control | [8] 97 % of control

C[Si](C)O[Si](C)C
inactive: dose: 100.0 mg/kg/injection, schedule: Q04DX003 (ip), vehicle: saline 91 % of control | dose: 200.0 mg/kg/injection, schedule: Q04DX003 (ip), vehicle: saline 101 % of control | dose: 400.0 mg/kg/injection, schedule: Q04DX003 (ip), vehicle: saline 101 % of control

N=C1SC(c2ccccc2)c2ccccc21 (centres undefined)
inactive: dose: 100.0 mg/kg/injection, schedule: Q01DX001 (ip), vehicle: Klucel (hydroxypropylcellulose) (HPC) 98 % of control | dose: 200.0 mg/kg/injection, schedule: Q01DX001 (ip), vehicle: Klucel (hydroxypropylcellulose) (HPC) 93 % of control | dose: 400.0 mg/kg/injection, schedule: Q01DX001 (ip), vehicle: Klucel (hydroxypropylcellulose) (HPC) 95 % of control

COC(=O)c1ccc2ccccc2n1
inactive: dose: 37.5 mg/kg/injection, schedule: Q04DX003 (ip), vehicle: saline 112 % of control | dose: 75.0 mg/kg/injection, schedule: Q01DX001 (ip), vehicle: saline 112 % of control | dose: 75.0 mg/kg/injection, schedule: Q04DX003 (ip), vehicle: saline 93 % of control | dose: 150.0 mg/kg/injection, schedule: Q01DX001 (ip), vehicle: saline 86 % of control | dose: 150.0 mg/kg/injection, schedule: Q04DX003 (ip), vehicle: saline 93 % of control

Nc1nc(-c2ccccc2)c(CCCNC(=O)c2ccc([N+](=O)[O-])cc2)c(=O)[nH]1
inactive: [4] 93 % of control | [5] 93 % of control | [9] 90 % of control

Cc1cc2c(cc1C)NC(=O)C(C)CN2 (centres undefined)
inactive: dose: 100.0 mg/kg/injection, schedule: Q01DX009 (ip), vehicle: Klucel (hydroxypropylcellulose) (HPC) 103 % of control | [4] 98 % of control | dose: 200.0 mg/kg/injection, schedule: Q01DX009 (ip), vehicle: Klucel (hydroxypropylcellulose) (HPC) 108 % of control | [5] 103 % of control | dose: 400.0 mg/kg/injection, schedule: Q01DX009 (ip), vehicle: Klucel (hydroxypropylcellulose) (HPC) 95 % of control | [9] 101 % of control

CC(=O)Nc1ccc(S(=O)(=O)Nc2ccc([N+](=O)[O-])cc2)cc1
inactive: dose: 25.0 mg/kg/injection, schedule: Q01DX009 (ip), vehicle: saline with Tween-80 96 % of control | dose: 50.0 mg/kg/injection, schedule: Q01DX009 (ip), vehicle: saline with Tween-80 100 % of control | [1] 98 % of control and 87 % of control | dose: 100.0 mg/kg/injection, schedule: Q04DX003 (ip), vehicle: saline with Tween-80 109 % of control | [2] 95 % of control and 94 % of control | dose: 200.0 mg/kg/injection, schedule: Q04DX003 (ip), vehicle: saline with Tween-80 109 % of control | [3] 97 % of control and 94 % of control | dose: 400.0 mg/kg/injection, schedule: Q04DX003 (ip), vehicle: saline with Tween-80 109 % of control

CC1(/C=N\NC(N)=O)CC2C=CC1C2 (centres undefined)
inactive: [4] 104 % of control | [5] 98 % of control

O=C(Nc1cccc(C(=O)Nc2cccc(C3=NCCN3)c2)c1)Nc1cccc(C(=O)Nc2cccc(C3=NCCN3)c2)c1
inactive: dose: 15.0 mg/kg/injection, schedule: Q01DX Z (ip), vehicle: methylcellulose (MC) 96 % of control | dose: 30.0 mg/kg/injection, schedule: Q01DX Z (ip), vehicle: methylcellulose (MC) 96 % of control | dose: 60.0 mg/kg/injection, schedule: Q01DX Z (ip), vehicle: methylcellulose (MC) 94 % of control | dose: 120.0 mg/kg/injection, schedule: Q01DX Z (ip), vehicle: methylcellulose (MC) 98 % of control | dose: 125.0 mg/kg/injection, schedule: Q01DX Z (ip), vehicle: carboxymethylcellulose (CMC) 110 % of control | dose: 250.0 mg/kg/injection, schedule: Q01DX Z (ip), vehicle: carboxymethylcellulose (CMC) 105 % of control | dose: 500.0 mg/kg/injection, schedule: Q01DX Z (ip), vehicle: carboxymethylcellulose (CMC) 96 % of control

Cc1ccc([N+](=O)[O-])cc1NC(=O)Nc1ccccc1C(N)=O
inactive: dose: 100.0 mg/kg/injection, schedule: Q04DX002 (ip), vehicle: Klucel (hydroxypropylcellulose) (HPC) 114 % of control | dose: 200.0 mg/kg/injection, schedule: Q04DX002 (ip), vehicle: Klucel (hydroxypropylcellulose) (HPC) 103 % of control | dose: 400.0 mg/kg/injection, schedule: Q04DX002 (ip), vehicle: Klucel (hydroxypropylcellulose) (HPC) 94 % of control

CCOc1nc(N)nc2c1-c1ccc(OC)cc1CC2
inactive: [6] 91 % of control | [7] 102 % of control | [8] 87 % of control

C=CCOc1cc(C)ccc1C
inactive: dose: 100.0 mg/kg/injection, schedule: Q01DX001 (ip), vehicle: carboxymethylcellulose (CMC) 98 % of control | dose: 200.0 mg/kg/injection, schedule: Q01DX001 (ip), vehicle: carboxymethylcellulose (CMC) 95 % of control | dose: 400.0 mg/kg/injection, schedule: Q01DX001 (ip), vehicle: carboxymethylcellulose (CMC) 98 % of control
